In patent US20250206727A1, “HETEROCYCLIC SUBSTITUTED AROMATIC COMPOUND, PREPARATION METHOD THEREFOR, HERBICIDAL COMPOSITION AND APPLICATION” (QINGDAO KINGAGROOT CHEMICAL COMPOUND CO., LTD., priority 2022, published 2025):

Legend:
Assay in all cases: Post-emergence test on weeds (greenhouse, spray at 2-3 leaf stage)
Assay type in all cases: in vivo
Set-up in all cases: key: Level 10: completely dead; Level 9: growth control rate greater than or equal to 90% and less than 100%; Level 8: growth control rate greater than or equal to 80% and less than 90%; Level 7: growth control rate greater than or equal to 70% and less than 80%; Level 6: growth control rate greater than or equal to 60% and less than 70%; Level 5: growth control rate greater than or equal to 50% and less than 60%; Level 4: growth control rate greater than or equal to 40% and less than 50%; Level 3: growth control rate greater than or equal to 30% and less than 40%; Level 2: growth control rate greater than or equal to 20% and less than 30%; Level 1: growth control rate less than 20%; Level 0: no effect
Settings in all cases: 60 g a.i./ha, 3 weeks after application
Setaria viridis = test system: Setaria viridis
Procedure, shortened: (§1)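 Greenhouse pot-grown weeds were sprayed by spray tower at the 2-3 leaf stage, about two weeks after sowing, with acetone/Tween 80 solutions plus 1.5 L/ha methyl oleate EC synergist at 500, 250, […], 15 and 7.5 g a.i./ha. Fresh-weight growth control was scored 0-10 after 3 weeks, triplicate averaged.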

Abutilon theophrasti = test system: Abutilon theophrasti
Procedure, shortened: as §1

Digitaria sanguinalis = test system: Digitaria sanguinalis
Procedure, shortened: as §1

Amaranthus retroflexus = test system: Amaranthus retroflexus
Procedure, shortened: as §1

Echinochloa crus-galli = test system: Echinochloa crus-galli
Procedure, shortened: as §1

Veronica polita = test system: Veronica polita
Procedure, shortened: as §1

C#CCOC(=O)C1(C)ON=C(c2cc(-c3ncc(C(F)(F)F)cc3Cl)c(F)cc2Cl)O1 (stereo not drawn) [Compound 97]
10: activity level (fresh weight growth control rate), Setaria viridis (Setaria viridis) | activity level (fresh weight growth control rate), Abutilon theophrasti (Abutilon theophrasti) | activity level (fresh weight growth control rate), Digitaria sanguinalis (Digitaria sanguinalis) | activity level (fresh weight growth control rate), Amaranthus retroflexus (Amaranthus retroflexus) | activity level (fresh weight growth control rate), Echinochloa crus-galli (Echinochloa crus-galli) | activity level (fresh weight growth control rate), Veronica polita (Veronica polita)

CC1(C(=O)OCCF)ON=C(c2cc(-c3ncc(C(F)(F)F)cc3Cl)c(F)cc2Cl)O1 (stereo not drawn) [Compound 99]
10: activity level (fresh weight growth control rate), Setaria viridis (Setaria viridis) | activity level (fresh weight growth control rate), Abutilon theophrasti (Abutilon theophrasti) | activity level (fresh weight growth control rate), Digitaria sanguinalis (Digitaria sanguinalis) | activity level (fresh weight growth control rate), Amaranthus retroflexus (Amaranthus retroflexus) | activity level (fresh weight growth control rate), Echinochloa crus-galli (Echinochloa crus-galli) | activity level (fresh weight growth control rate), Veronica polita (Veronica polita)

CC1(C(=O)OCC(F)F)ON=C(c2cc(-c3ncc(C(F)(F)F)cc3Cl)c(F)cc2Cl)O1 (stereo not drawn) [Compound 101]
10: activity level (fresh weight growth control rate), Setaria viridis (Setaria viridis) | activity level (fresh weight growth control rate), Abutilon theophrasti (Abutilon theophrasti) | activity level (fresh weight growth control rate), Digitaria sanguinalis (Digitaria sanguinalis) | activity level (fresh weight growth control rate), Amaranthus retroflexus (Amaranthus retroflexus) | activity level (fresh weight growth control rate), Echinochloa crus-galli (Echinochloa crus-galli) | activity level (fresh weight growth control rate), Veronica polita (Veronica polita)

CC1(C(=O)OCCCF)ON=C(c2cc(-c3ncc(C(F)(F)F)cc3Cl)c(F)cc2Cl)O1 (stereo not drawn) [Compound 103]
10: activity level (fresh weight growth control rate), Setaria viridis (Setaria viridis) | activity level (fresh weight growth control rate), Abutilon theophrasti (Abutilon theophrasti) | activity level (fresh weight growth control rate), Digitaria sanguinalis (Digitaria sanguinalis) | activity level (fresh weight growth control rate), Amaranthus retroflexus (Amaranthus retroflexus) | activity level (fresh weight growth control rate), Echinochloa crus-galli (Echinochloa crus-galli) | activity level (fresh weight growth control rate), Veronica polita (Veronica polita)

C=CCCCOC(=O)C1(C)ON=C(c2cc(-c3ncc(C(F)(F)F)cc3Cl)c(F)cc2Cl)O1 (stereo not drawn) [Compound 106]
10: activity level (fresh weight growth control rate), Setaria viridis (Setaria viridis) | activity level (fresh weight growth control rate), Abutilon theophrasti (Abutilon theophrasti) | activity level (fresh weight growth control rate), Digitaria sanguinalis (Digitaria sanguinalis) | activity level (fresh weight growth control rate), Amaranthus retroflexus (Amaranthus retroflexus) | activity level (fresh weight growth control rate), Echinochloa crus-galli (Echinochloa crus-galli) | activity level (fresh weight growth control rate), Veronica polita (Veronica polita)

COCOC(=O)C1(C)ON=C(c2cc(-c3ncc(C(F)(F)F)cc3Cl)c(F)cc2Cl)O1 (stereo not drawn) [Compound 108]
10: activity level (fresh weight growth control rate), Setaria viridis (Setaria viridis) | activity level (fresh weight growth control rate), Abutilon theophrasti (Abutilon theophrasti) | activity level (fresh weight growth control rate), Digitaria sanguinalis (Digitaria sanguinalis) | activity level (fresh weight growth control rate), Amaranthus retroflexus (Amaranthus retroflexus) | activity level (fresh weight growth control rate), Echinochloa crus-galli (Echinochloa crus-galli) | activity level (fresh weight growth control rate), Veronica polita (Veronica polita)

CSCOC(=O)C1(C)ON=C(c2cc(-c3ncc(C(F)(F)F)cc3Cl)c(F)cc2Cl)O1 (stereo not drawn) [Compound 109]
10: activity level (fresh weight growth control rate), Setaria viridis (Setaria viridis) | activity level (fresh weight growth control rate), Abutilon theophrasti (Abutilon theophrasti) | activity level (fresh weight growth control rate), Digitaria sanguinalis (Digitaria sanguinalis) | activity level (fresh weight growth control rate), Amaranthus retroflexus (Amaranthus retroflexus) | activity level (fresh weight growth control rate), Echinochloa crus-galli (Echinochloa crus-galli) | activity level (fresh weight growth control rate), Veronica polita (Veronica polita)

COCCOC(=O)C1(C)ON=C(c2cc(-c3ncc(C(F)(F)F)cc3Cl)c(F)cc2Cl)O1 (stereo not drawn) [Compound 110]
10: activity level (fresh weight growth control rate), Setaria viridis (Setaria viridis) | activity level (fresh weight growth control rate), Abutilon theophrasti (Abutilon theophrasti) | activity level (fresh weight growth control rate), Digitaria sanguinalis (Digitaria sanguinalis) | activity level (fresh weight growth control rate), Amaranthus retroflexus (Amaranthus retroflexus) | activity level (fresh weight growth control rate), Echinochloa crus-galli (Echinochloa crus-galli) | activity level (fresh weight growth control rate), Veronica polita (Veronica polita)

COCCOC(=O)C1(C)ON=C(c2cc(-c3ncc(Cl)cc3Cl)c(F)cc2Cl)O1 (stereo not drawn) [Compound 111]
10: activity level (fresh weight growth control rate), Setaria viridis (Setaria viridis) | activity level (fresh weight growth control rate), Abutilon theophrasti (Abutilon theophrasti) | activity level (fresh weight growth control rate), Digitaria sanguinalis (Digitaria sanguinalis) | activity level (fresh weight growth control rate), Amaranthus retroflexus (Amaranthus retroflexus) | activity level (fresh weight growth control rate), Echinochloa crus-galli (Echinochloa crus-galli) | activity level (fresh weight growth control rate), Veronica polita (Veronica polita)
